This passage reports EC50 results from patent US8822520B2, “Substituted bicyclic HCV inhibitors” (Presidio Pharmaceuticals, Inc., priority 2010, dated 2014).

One experiment deals with HCV genotype 1b replicon in Huh 7 cells (HCV 1b_Huh-Luc/Neo-ET cell line). Put plainly: HCV replicon assay (luciferase readout). The settings on record: Hepatitis C virus, Huh-7, 72 h, read-out: Inhibition of HCV genotype lb. In kind it is cell-based. The procedure: Biological activity of the compounds of the invention was determined using an HCV replicon assay. The HCV 1b_Huh-Luc/Neo-ET cell line persistently expressing a bicistronic genotype 1b replicon in Huh 7 cells was obtained from ReBLikon GMBH. This cell line was used to test compound inhibition using luciferase enzyme activity readout as a measurement of compound inhibition of replicon levels.
On Day 1 (the day after plating cells), each compound is added in triplicate to the cells. Plates are incubated for 72 h prior to determining luciferase levels. Enzyme activity was measured using a Bright-Glo Kit (cat. number E2620) manufactured by Promega Corporation. The following equation was used to generate a percent control value for each compound. % Control=(Compound Luciferase Level/Control Luciferase Level)*100
The EC50 value was determined using GraphPad Prism and the following equation: Y=Bottom asymptote+(Top asymptote−Bottom asymptote)/(1+10^((Log EC50−X)*HillSlope))
EC50 values of compounds are determined several times in the replicon assay to generate average EC50 values.
On the technique in general: A replicon is a self-replicating genome or part of one, used to study replication in cells.
Consider `COC(=O)N[C@H](C(=O)N1CCC[C@H]1c1ncc(-c2ccc(-c3ccc(-c4cnc([C@@H]5CCCN5C(=O)[C@@H](NC(=O)OC)C(C)C)[nH]4)c4c3OCCOCCOCCO4)cc2)[nH]1)C(C)C` [Compound 80], for which the EC50 was less than 1 nM.

Regarding `COCCOc1c(-c2ccc(-c3cnc([C@@H]4C[C@@H](O)CN4C(=O)[C@@H](NC(=O)OC)C(C)C)[nH]3)cc2)ccc(-c2cnc([C@@H]3CCCN3C(=O)[C@@H](NC(=O)OC)C(C)C)[nH]2)c1OCCOC` [Compound 60], the EC50 was less than 1 nM.

With `COCCOc1cc(-c2cnc([C@@H]3CCCN3C(=O)[C@@H](NC(=O)OC)C(C)C)[nH]2)c(OCCOC)cc1-c1ccc(-c2cnc([C@@H]3CCCN3C(=O)[C@@H](NC(=O)OC)C(C)C)[nH]2)cc1` [Compound 55], the EC50 was less than 1 nM.

`COCCOc1cc(-c2cnc([C@@H]3CCCN3C(=O)[C@@H](NC(=O)OC)C(C)C)[nH]2)ccc1-c1ccc(-c2cnc([C@@H]3CCCN3C(=O)[C@@H](NC(=O)OC)C(C)C)[nH]2)c(OCCOC)c1` [Compound 51]: the EC50 is less than 1 nM.

As to `COCCOc1cc(-c2cnc([C@@H]3CCCN3C(=O)[C@@H](NC(=O)OC)C(C)C)[nH]2)ccc1-c1ccc(-c2cnc([C@@H]3CCCN3C(=O)[C@H](NC(=O)OC)c3cccs3)[nH]2)cc1OCCOC` [Compound 89], the EC50 is less than 1 nM.

Regarding `COCCOc1cc(-c2cnc([C@@H]3CCCN3C(=O)[C@H](C)NC(=O)OC)[nH]2)ccc1-c1ccc(-c2cnc([C@@H]3CCCN3C(=O)[C@@H](NC(=O)OC)C(C)C)[nH]2)cc1OCCOC` [Compound 86], the EC50 is 1 to 9.9 nM.

With `COCCOc1cc(-c2cnc([C@@H]3CCCN3C(=O)[C@@H](NC(=O)OC)C(C)(C)C)[nH]2)ccc1-c1ccc(-c2cnc([C@@H]3CCCN3C(=O)[C@@H](NC(=O)OC)C(C)(C)C)[nH]2)cc1OCCOC` [Compound 76], the EC50 is less than 1 nM.

Regarding `COCCOc1cc(-c2ccc(-c3cnc([C@@H]4CCCN4C(=O)[C@@H](NC(=O)OC)C(C)C)[nH]3)cc2)ccc1-c1cnc([C@@H]2CCCN2C(=O)[C@@H](NC(=O)OC)C(C)C)[nH]1` [Compound 53], the EC50 is less than 1 nM.

With `COCCOc1cc(-c2cnc([C@@H]3CCCN3C(=O)[C@@H](NC(=O)OC)C3CCOCC3)[nH]2)ccc1-c1ccc(-c2cnc([C@@H]3CCCN3C(=O)[C@@H](NC(=O)OC)C3CCOCC3)[nH]2)cc1OCCOC` [Compound 77], the EC50 lay in the range of 1 to 9.9 nM.

For `COCCOc1cc(-c2cnc([C@@H]3CCCN3C(=O)[C@H](NC(=O)OC)c3cccs3)[nH]2)ccc1-c1ccc(-c2cnc([C@@H]3CCCN3C(=O)[C@H](NC(=O)OC)c3cccs3)[nH]2)cc1OCCOC` [Compound 79], the EC50 is less than 1 nM.

In the case of `COCCOc1cc(-c2cnc([C@@H]3CCCN3C(=O)[C@@H](NC(=O)OC)C(C)C)[nH]2)ccc1-c1ccc(-c2cnc([C@@H]3CCCN3C(=O)[C@@H](c3ccccc3)N(C)C)[nH]2)cc1OCCOC` [Compound 90], the EC50 lay within 1 to 9.9 nM.

The same experiment, now with this note: Hepatitis C virus, Huh-7; Table 1; EC50 range class; replicon luciferase, 72 h incubation, average EC50; read-out: Inhibition of HCV genotype 1b.
Take `COCCOc1cc(-c2cnc([C@@H]3CCCN3C(=O)[C@@H](NC(=O)OC)C(C)C)[nH]2)ccc1-c1ccc(-c2cnc([C@@H]3CCCN3C(=O)[C@H](NC(=O)OC)c3ccccc3)[nH]2)cc1OCCOC` [Compound 37]: the EC50 was less than 1 nM.

Regarding `COCCOc1c(-c2ccc(-c3cnc([C@@H]4CCCN4C(=O)[C@H](NC(=O)OC)c4ccccc4)[nH]3)cc2)ccc(-c2cnc([C@@H]3CCCN3C(=O)[C@H](NC(=O)OC)c3ccccc3)[nH]2)c1OCCOC` [Compound 20], the EC50 is less than 1 nM.

In the case of `CC[C@H](C)C(NC(=O)OC)C(=O)N1CCC[C@H]1c1ncc(-c2ccc(-c3ccc(-c4cnc([C@@H]5CCCN5C(=O)C(NC(=O)OC)[C@@H](C)CC)[nH]4)cc3OCCOC)c(OCCOC)c2)[nH]1` (some centres unmarked) [Compound 7], the EC50 is less than 1 nM.

For the compound `COC(=O)N[C@H](C(=O)N1CCC[C@H]1c1ncc(-c2ccc3c(c2)OCCOCCOCCOCCOCCOc2cc-3ccc2-c2cnc([C@@H]3CCCN3C(=O)[C@@H](NC(=O)OC)C(C)C)[nH]2)[nH]1)C(C)C` [Compound 43], the EC50 was 1 to 9.9 nM.

For `COCCOc1c(-c2ccc(-c3cnc([C@@H]4CCCN4C(=O)[C@@H](NC(=O)OC)C(C)C)[nH]3)cc2)ccc(-c2cnc([C@@H]3CCCN3C(=O)[C@H](NC(=O)OC)c3cccs3)[nH]2)c1OCCOC` [Compound 32], the EC50 was less than 1 nM.

On to `COCCOc1c(-c2ccc(-c3cnc([C@@H]4CCCN4C(=O)[C@H](NC(C)=O)c4ccccc4)[nH]3)cc2)ccc(-c2cnc([C@@H]3CCCN3C(=O)[C@H](NC(C)=O)c3ccccc3)[nH]2)c1OCCOC` [Compound 23], for which the EC50 was less than 1 nM.

Turning to `COCCOc1c(-c2ccc(-c3cnc([C@@H]4CCCN4C(=O)[C@@H](NC(=O)OC)C(C)C)[nH]3)cc2)ccc(-c2cnc([C@@H]3CCCN3C(=O)[C@@H](c3ccccc3)N(C)C)[nH]2)c1OCCOC` [Compound 33], the EC50 is less than 1 nM.

With `CC[C@H](C)C(NC(=O)OC)C(=O)N1CCC[C@H]1c1ncc(-c2ccc(-c3ccc(-c4cnc([C@@H]5CCCN5C(=O)[C@@H](NC(=O)OC)[C@@H](C)CC)[nH]4)c(OCCOC)c3OCCOC)cc2)[nH]1` (some centres unmarked) [Compound 3], the EC50 was less than 1 nM.

Consider `COCCOc1cc(-c2cnc([C@@H]3CCCN3C(=O)C(NC(=O)OC)[C@@H](C)OC)[nH]2)ccc1-c1ccc(-c2cnc([C@@H]3CCCN3C(=O)C(NC(=O)OC)[C@@H](C)OC)[nH]2)cc1OCCOC` (some centres unmarked) [Compound 25], for which the EC50 is 1 to 9.9 nM.

Take `CC[C@H](C)[C@H](NC(=O)OC)C(=O)N1CCC[C@H]1c1ncc(-c2ccc(-c3ccc(-c4cnc([C@@H]5CCCN5C(=O)[C@@H](NC(=O)OC)C(C)C)[nH]4)cc3)c(OCCOC)c2OCCOC)[nH]1` [Compound 19]: the EC50 is less than 1 nM.

`COCCOc1c(-c2ccc(-c3cnc([C@@H]4CCCN4C(=O)[C@@H](NC(=O)OC)C(C)C)[nH]3)cc2)ccc(-c2cnc([C@@H]3CCCN3C(=O)[C@@H](NC(=O)OC)[C@@H](C)OC)[nH]2)c1OCCOC` [Compound 28]: the EC50 is less than 1 nM.

Regarding `COCCOc1c(-c2ccc(-c3cnc([C@@H]4CCCN4C(=O)[C@@H](c4ccccc4)N(C)C)[nH]3)cc2)ccc(-c2cnc([C@@H]3CCCN3C(=O)[C@@H](c3ccccc3)N(C)C)[nH]2)c1OCCOC` [Compound 15], the EC50 was less than 1 nM.

Take `COCCOc1c(-c2ccc(-c3cnc([C@@H]4CCCN4C(=O)[C@H](NC(=O)OC)C(C)C)[nH]3)cc2)ccc(-c2cnc([C@@H]3CCCN3C(=O)[C@H](C)NC(=O)OC)[nH]2)c1OCCOC` [Compound 18]: the EC50 fell in the range of 1 to 9.9 nM.

Turning to `COCCOc1c(-c2ccc(-c3cnc([C@@H]4CCCN4C(=O)[C@@H](NC(=O)OC)C(C)C)[nH]3)cc2)ccc(-c2cnc([C@@H]3CCCN3C(=O)[C@@H](NC(=O)OC)C3CCCC3)[nH]2)c1OCCOC` [Compound 29], the EC50 is less than 1 nM.

In the case of `COC(=O)N[C@H](C(=O)N1CCC[C@H]1c1ncc(-c2ccc3c(c2)OCCOCCOCCOc2cc(-c4cnc([C@@H]5CCCN5C(=O)[C@@H](NC(=O)OC)C(C)C)[nH]4)ccc2-3)[nH]1)C(C)C` [Compound 44], the EC50 is 1 to 9.9 nM.

On to `COCCOc1c(-c2ccc(-c3cnc([C@@H]4CCCN4C(=O)[C@@H](NC(=O)OC)C(C)C)[nH]3)cc2)ccc(-c2cnc([C@@H]3CCCN3C(=O)[C@H](COC)NC(=O)OC)[nH]2)c1OCCOC` [Compound 27], for which the EC50 is less than 1 nM.

With `COCCOc1cc(-c2cnc([C@@H]3CCCN3C(=O)[C@H](C)NC(=O)OC)[nH]2)ccc1-c1ccc(-c2cnc([C@@H]3CCCN3C(=O)[C@H](C)NC(=O)OC)[nH]2)cc1OCCOC` [Compound 6], the EC50 fell in the range of 10 to 999 nM.

On to `COCCOc1c(-c2ccc(-c3cnc([C@@H]4CCCN4C(=O)[C@@H](NC(=O)OC)C4CCOCC4)[nH]3)cc2)ccc(-c2cnc([C@@H]3CCCN3C(=O)[C@@H](NC(=O)OC)C3CCOCC3)[nH]2)c1OCCOC` [Compound 14], for which the EC50 lay within 1 to 9.9 nM.

For the compound `COCCOc1c(-c2ccc(-c3cnc([C@H](C)NC(=O)[C@@H](NC(=O)OC)C(C)C)[nH]3)cc2)ccc(-c2cnc([C@@H]3CCCN3C(=O)[C@@H](NC(=O)OC)C(C)C)[nH]2)c1OCCOC` [Compound 39], the EC50 was in the range of 1 to 9.9 nM.

Turning to `COCCOc1cc(-c2cnc([C@@H]3CCCN3C(=O)[C@@H](NC(=O)OC)C(C)C)[nH]2)ccc1-c1ccc(-c2cnc([C@@H]3CCCN3C(=O)[C@@H](c3ccccc3)N3CCCC3)[nH]2)cc1OCCOC` [Compound 38], the EC50 is 1 to 9.9 nM.

For the compound `COCCOc1c(-c2ccc(-c3cnc([C@@H]4CCCN4C(=O)[C@H](NS(C)(=O)=O)c4ccccc4)[nH]3)cc2)ccc(-c2cnc([C@@H]3CCCN3C(=O)[C@H](NS(C)(=O)=O)c3ccccc3)[nH]2)c1OCCOC` [Compound 17], the EC50 was less than 1 nM.

`COCCOc1c(-c2ccc(-c3cnc([C@@H]4CCCN4C(=O)[C@@H](c4ccccc4)N4CCCC4)[nH]3)cc2)ccc(-c2cnc([C@@H]3CCCN3C(=O)[C@@H](c3ccccc3)N3CCCC3)[nH]2)c1OCCOC` [Compound 16]: the EC50 fell in the range of 1 to 9.9 nM.

In the case of `COCCOc1c(-c2ccc(-c3cnc([C@@H]4CCCN4C(=O)[C@@H](NC(=O)OC)C(C)C)[nH]3)cc2)ccc(-c2cnc([C@@H]3CCCN3C(=O)[C@@H](c3ccccc3)N3CCCC3)[nH]2)c1OCCOC` [Compound 45], the EC50 was less than 1 nM.

For `COCCOc1c(-c2ccc(-c3cnc([C@@H]4CCCN4C(=O)[C@@H](NC(=O)OC)C(C)C)[nH]3)cc2)ccc(-c2cnc([C@@H]3CCCN3C(=O)[C@H](NC(=O)OC)c3ccsc3)[nH]2)c1OCCOC` [Compound 31], the EC50 was less than 1 nM.
